Columns and labels:
T. congolense [1] = assay: In vitro drug sensitivity assay, T. congolense (IL3000); type: cell-based; details: Trypanosoma congolense; IL3000 strain
Method: 1.2 In vitro drug sensitivity assays - Trypanosoma congolense
EC50 values for test compounds against T. congolense (IL3000 strain) were conducted as previously described3 with minor modifications.4 Briefly, trypanosome cell densities were determined using a CASY cell counter (Schärfe) and diluted to a seeding density of 2 x 105 trypanosomes/mL. BSF trypanosomes were grown in HMI-9 (IMDM) media supplemented with 20% (v/v) bovine serum.1 Test compounds were resuspended to a final concentration of 10 mg/mL in DMSO. Assays plates were incubated at 34 °C with 5 % CO2, for a total of 69 h, prior to addition of 10 µL of Resazurin (12.5 mg in 100 mL phosphate buffered saline, Aldrich) into each well, followed by a further 3 h incubation. Absorbance was read using a SpectraMax (Gemini XS) fluorescence reader at an excitation wavelength of 536 nm and an emission wavelength of 588 nm. EC50 values were determined using SOFTmax Pro 5.2 analysis software. All experiments were conducted with technical duplicates, and at least three biological replicates. […]

[2] = Bovine liver microsome stability; type: in vitro ADME; details: intrinsic clearance
Method: 2.2 Microsomal stability studies […]
(b) Bovine liver microsome stability. Test compounds (0.5 µM) were incubated with 0.5 mg/mL bovine liver microsomes (Xenotech LLC TM) in 50 mM potassium phosphate buffer, pH7.4 and the reaction initiated upon addition of excess NADPH (8 mg/mL in 50 mM potassium phosphate buffer, pH7.4).
Aliquots (50 µL) of the incubation mixture were taken at time zero, 3, 6, 9, 15 and 30 min then mixed with acetonitrile (100 µL) to stop the reaction. An internal standard was added to all samples, prior to centrifugation (10 min, 1,665 g, RT) to sediment precipitated protein. Reaction plates were then sealed prior to UPLCMSMS analysis using a Quattro Premier XE (Waters corporation, USA).
XLfit (IDBS, UK) was used to calculate the exponential decay and consequently the rate constant (k) from the ratio of peak area of test compound to internal standard at each timepoint. The rate of intrinsic clearance (CLi) of each test compound was then calculated using the following […]
CLi(mL/min/g liver) = k x V x microsomal protein yield
Where V (mL/mg protein) is the incubation volume/ mg protein added and microsomal protein yield is taken as 52.5 mg protein/ g of liver. Verapamil (0.5 µM) was used as a positive control to confirm acceptable assay performance. […]

T. vivax [3] = assay: Ex vivo drug sensitivity assay, T. vivax (STIB 719/ILRAD 560); type: cell-based; details: Trypanosoma vivax
Method: Test compounds were resuspended to a final concentration of 10 mg/mL in DMSO. […]
1.3 Ex vivo drug sensitivity assays - Trypanosoma vivax
Since T. vivax cannot be cultured axenically, BSF trypanosomes were harvested from an infected mouse with high parasitemia via cardiac puncture and used directly in ex vivo assays. EC50 values were determined against T, vivax (STIB 719/ ILRAD 560) as previously described3, with minor modifications. Briefly, cell densities were determined using a Neubauer chamber and then diluted to a seeding density of 4 x 105 trypanosomes / mL. BSF trypanosomes were cultured in HMI-9 (IMDM) media containing 20% (v/v) bovine serum. Assay plates were incubated at 37 °C with 5 % CO2, for a total of 45 h prior to addition 10 µL of Resazurin (12.5 mg in 100 mL phosphate buffered saline, Aldrich) into each well, followed by a further 3 h incubation. Absorbance was read using a SpectraMax (Gemini XS) fluorescence reader at an excitation wavelength of 536 nm and an emission wavelength of 588 nm. EC50 values were determined using SOFTmax Pro 5.2 analysis […]
software. […]

[4] = Aqueous kinetic solubility by laser nephelometry; type: physicochemical; details: MilliQ water with 2.5% DMSO, read-out: Sol (kinetic solubility); for solubility kinetic: range 250-12 µM
Method: 2. Drug metabolism and pharmacokinetics
The aqueous solubility of test compounds was measured using laser nephelometry. Compounds were subject to serial dilution from 10 mM to 0.5 mM in DMSO. Aliquot were then mixed with MilliQ water to obtain an aqueous dilution plate with a final concentration range of 250 – 12 µM. The final DMSO concentration in these plates was 2.5%. Triplicate aliquots were transferred to a flat-bottomed polystyrene plate which was immediately read on a NEPHELOstar nephelometer (BMG Lab Technologies). The laser scatter caused by insoluble particulates (relative nephelometry units, RNU) was plotted against compound concentration using a segmental regression fit, with the point of inflection being quoted as the compound’s aqueous solubility (µM).
Solubility of compound 1 was measured by a different method. Here, compound 1 was dissolved in DMSO to give a 10 mM solution and solubility test samples prepared by adding a volume (5 µL) of this stock solution to phosphate buffered saline, pH 7.4 (195 µL, Sigma-Aldrich). This

L6 cells = assay: Cytotoxicity assay, rat skeletal myoblasts (L6); type: cell-based
Method: 1.4 Cytotoxicity assays – Rat skeletal myoblasts (L6)
The cytotoxicity of test compounds was evaluated using a rat skeletal myoblast (L6) cell line, as previously described3, but with minor modifications. Cells were grown in RPMI media supplemented with 10% (v/v) fetal calf serum. L6 cells at a seeding density of 2 x 10^4 cells/mL were incubated in microtiter plates overnight at 37 °C and 5 % CO2 until adherent. The following day, test compounds were added to the plates (3-fold serial dilutions), prior to incubation for 69 h. Following incubation, 10 µL of Resazurin (12.5 mg in 100 mL phosphate buffered saline, Aldrich) was added to each well and the plates were incubated for a further 3 h. The plates were read using a SpectraMax (Gemini XS) fluorescence reader at an excitation wavelength of 536 nm and an emission wavelength of 588 nm. EC50 values were determined using SOFTmax Pro 5.2 analysis software. All experiments were conducted as technical replicates, with at least three biological replicates. […]

T. vivax [5] = assay: NMRI mouse efficacy model, T. vivax; type: in vivo, Trypanosoma vivax; details: mice; 10 mg/kg SC once daily for 4 days
Method: (§1) 3. In vivo efficacy studies
(§2) The T. congolense (IL3000) and T. vivax (ILRAD V34) cell lines7, 8, both originating from Kenya, were used in the following in vivo mouse studies. For studies in cattle, either Trypanosoma congolense (savannah) KONT 2/133, 224) or T. vivax STIB 719 was used.
(§3) 3.1 Mouse efficacy studies for T. brucei brucei.
(§4) Mouse efficacy studies for T. brucei brucei were carried out as previously detailed.9 3.2 NMRI mouse efficacy studies for T. congolense and T. vivax.
(§5) Mouse models of infections were carried out using standardized protocols. Briefly, 1 mL samples of cryopreserved T. congolense, or T. vivax-infected blood harvested directly from an infected mouse, were diluted with Hanks Balanced Salt Solution plus 20 mM glucose (HBSS+G) to 5 x 10^4 trypomastigotes/mL (5 x 105 for T. vivax). Female mice (NMRI) were inoculated IP on day 0 with 0.2 mL/animal (equivalent to ~ 1 x 104 T. congolense or ~ 1 x 105 T. vivax per animal). The level of parasitaemia was inspected microscopically on day 3 using tail blood smears, counting 20 high powered fields (× 400 magnification). For untreated or treated animals whose tail smears exceeded 50 parasites/field, precise parasite levels were established using a Neubauer haemocytometer; mice with a parasite burden over 1 x 108 were promptly and humanely terminated (T. congolense only, from our experience the mice will not survive for a further 24 h). Alternatively, in the case of T. vivax-infected mice the immune system will bring the infection to a sub-lethal level (below limit of detection) […]
(§6) followed by cycles of high and low parasitaemia. Eventually mice infected with T. vivax succumb to the infection between 30 – 60 days post-infection.
(§7) Suppression of parasitaemia - mouse
(§8) On day 3 post-infection, animals were randomly allocated to groups, with 3 mice/group. Infected animals were dosed with one of the following: diaminazene diaceturate IP. – 40 mg/kg once only as a control (early-stage trypanocide used to clear the parasites in the systemic circulation and in tissues other than CNS), compound 1 (SC) at 3, 10, 30 and 50 mg free base/kg twice and once daily for 4 d or a single dose, or compound 2 (SC) at 3 and 10 mg free base /kg once daily for 4 d, once daily for 2 d or a single dose, one group of 3 mice acted as an untreated control group. The dose solutions were prepared daily, using 5% DMSO: 40% PEG400: 55% MilliQ H2O for test compounds and 10% DMSO: 90% peanut oil for standard drugs. Alternatively, compound 2 was delivered for 48 h via SC implanted ALZET osmotic pumps (6, 12, 25 and 50 mg free base/mL, vehicle: 50% DMSO […]
(§9) and 50% deionized water).
(§10) Response to treatment was determined by monitoring parasitaemia twice a week until day 21.
(§11) After day 21, the mice were checked once a week until 63 d post-treatment. Mice surviving to the end of the experiment, and with blood smears clear of parasites, were considered cured. […]
(§12) The parasites were obtained from a donor calf. This isolate is resistant to diminazene (20 mg/kg) and isometamidium (1 mg/kg) in cattle, and diminazene (7 mg/kg) and isometamidium (>1 mg/kg) in mice. Calves were parasitaemic by study day 6. Calves (n = 5) were treated with compound 1 (5 mg/kg, SC, twice 12 h apart) on study

T. congolense [6] = assay: NMRI mouse efficacy model, T. congolense; type: in vivo, Trypanosoma congolense; details: mice; 10 mg/kg SC once daily for 4 days
Method: as §1, §2, §3, §4, §5, §6, §7, §8, §9, §10, §11, §12

| EC50 (T. congolense [1]) [nM] | Bovine Microsome Cli (BLM: bovine microsomal clearance) [2] [mL/min/g] | EC50 (T. vivax [3]) [nM] | solubility kinetic [4] [µM] | solubility kinetic at 24 h ([4]; pH 7.4, range 250-12 µM) [µM] | Compound | EC50 (L6 cells) [nM] | Efficacy at 10 mg/kg SC for 4 days, T. vivax (T. vivax [5]) | Efficacy at 10 mg/kg SC for 4 days, T. congo (T. congolense [6]) |
| --- | --- | --- | --- | --- | --- | --- | --- | --- |
| 2.5 | 1.3 | 6.9 | > 250 | – | CC(C)CS(=O)(=O)N[C@H]1CC[C@H](Nc2nc(N)c(C(=O)c3c(F)cc(CN4CCC4)cc3F)s2)CC1.Cl [Compound 6, N-(((trans)-4-((4-Amino-5-(4-azetidin-1-ylmethyl)-2,6-difluorobenzoyl)thiazol-2-yl)amino)cyclohexyl)-2-methylpropane-1-sulfonamide Hydrochloride] | 5300 | – | – |
| – | <0.5 | – | – | 220 | CC(C)CS(=O)(=O)N[C@H]1CC[C@H](Nc2nc(N)c(C(=O)c3c(F)cc(CN4CCCC4)cc3F)s2)CC1.Cl [Compound 5, N-((trans)-4-((-4-Amino-5-(2,6-difluoro-4-(pyrrolidin-1-ylmethyl)benzoyl)thiazol-2-yl)amino)cyclohexyl)-2-methyl-propane-1-sulfonamide Hydrochloride] | – | Full cure (3/3) | Partial cure (1/3) |
| 8.3 | <0.5 | 0.5 | > 250 | – | CC(C)CS(=O)(=O)N[C@H]1CC[C@H](Nc2nc(N)c(C(=O)c3c(F)cc(CN)cc3F)s2)CC1.Cl [Compound 9, N-((trans)-4-((4-Amino-5-(4-(aminomethyl)-2,6-difluorobenzoyl)thiazol-2-yl)amino)cyclohexyl)-2-methylpropane-1-sulfonamide Hydrochloride] | 5900 | – | – |
| – | 1 | – | – | – | CC(C)CS(=O)(=O)N[C@H]1CC[C@H](Nc2nc(N)c(C(=O)c3c(F)cc(CN4CCOCC4)cc3F)s2)CC1.Cl [Compound 4, N-((trans)-4-((4-Amino-5-(2,6-difluoro-4-((4-morpholinomethyl)benzoyl)thiazol-2-yl)amino)cyclohexyl))-2-methylpropane-1-sulfonamide Hydrochloride] | – | No cure (0/3) | No cure (0/3) |
| 0.59 | 7.1 | 0.05 | > 250 | – | CC(C)CS(=O)(=O)N[C@H]1CC[C@H](Nc2nc(N)c(C(=O)c3c(Cl)cc(CN(C)C)cc3Cl)s2)CC1.Cl [Compound 11, N-((trans)-4-((4-Amino-5-(4-(dimethylaminomethyl)-2,6-dichlorobenzoyl)thiazol-2-yl)amino)cyclohexyl)-2-methylpropane-1-sulfonamide Hydrochloride] | 4300 | – | – |
| 16 | 0.8 | 1 | > 250 | – | CC(C)CS(=O)(=O)N[C@H]1CC[C@H](Nc2nc(N)c(C(=O)c3c(F)cc(CCN(C)C)cc3F)s2)CC1.Cl [Compound 7, N-(((trans)-4-((4-Amino-5-(4-(2-dimethylamino)ethyl)-2,6-difluorobenzoyl)thiazol-2-yl)amino)cyclohexyl)-2-methylpropane-1-sulfonamide Hydrochloride] | 18000 | – | – |
| – | <0.5 | – | > 250 | – | CC(C)CS(=O)(=O)N[C@H]1CC[C@H](Nc2nc(N)c(C(=O)c3c(F)cc(CN4CCN(C)CC4)cc3F)s2)CC1.Cl [Compound 3, N-((trans)-4-((4-Amino-5-(2,6-difluoro-4-((4-methylpiperazin-1-yl)methyl)benzoyl)thiazol-2-yl)amino)cyclohexyl)-2-methylpropane-1-sulfonamide Hydrochloride] | – | No cure (0/3) | Partial cure (1/3) |
